Test [1] deals with soluble human BACE1 catalytic domain (Homo sapiens, UniProt P56817). Description: BACE1 HTRF FRET Assay. The conditions noted are these: Ki calculated from IC50 using the Cheng-Prusoff equation; QSY7-APPswe-Eu substrate 200 nM, pH 5.0. In kind it is biochemical. The text has this:
Na^+-Acetate pH 5.0; 1% Brij-35; Glycerol; Dimethyl Sulfoxide (DMSO); Recombinant human soluble BACE1 catalytic domain (>95% pure); APP Swedish mutant peptide substrate (QSY7-APP^swe-Eu): QSY7-EISEVNLDAEFC-Europium-amide.
A homogeneous time-resolved FRET assay can be used to determine IC50 values for inhibitors of the soluble human BACE1 catalytic domain. This assay monitors the increase of 620 nm fluorescence that resulted from BACE1 cleavage of an APPswedish APP^swe mutant peptide FRET substrate (QSY7-EISEVNLDAEFC-Europium-amide). This substrate contains an N-terminal QSY7 moiety that serves as a quencher of the C-terminal Europium fluorophore (620 nm Em). In the absence of enzyme activity, 620 nm fluorescence is low in the assay and increased linearly over 3 hours in the presence of uninhibited BACE1 enzyme. Inhibition of BACE1 cleavage of the QSY7-APP^swe-Eu substrate by inhibitors is manifested as a suppression of 620 nm fluorescence.
Varying concentrations of inhibitors at 3× the final desired concentration in a volume of 10 ul are preincubated with purified human BACE1 catalytic domain (3 nM in 10 μl) for 30 minutes at 30° C. in reaction buffer containing 20 mM Na-Acetate pH 5.0, 10% glycerol, 0.1% Brij-35 and 7.5% DSMO. Reactions are initiated by addition of 10 μl of 600 nM QSY7-APP^swe-Eu substrate (200 nM final) to give a final reaction volume of 30 μl in a 384 well Nunc HTRF plate. The reactions are incubated at 30° C. for 1.5 hours. The 620 nm fluorescence is then read on a Rubystar HTRF plate reader (BMG Labtechnologies) using a 50 millisecond delay followed by a 400 millisecond acquisition time window. Inhibitor IC50 values are derived from non-linear regression analysis of concentration response curves. Ki values are then calculated from IC50 values using the Cheng-Prusoff equation using a previously determined […] of 8 μM for the QSY7-APP^swe-Eu substrate at BACE.

The target of test [2] is T1, purified human autoBACE-2 (Homo sapiens, UniProt Q9Y5Z0).
T1 sequence (Q9Y5Z0 63-473 limits assumed): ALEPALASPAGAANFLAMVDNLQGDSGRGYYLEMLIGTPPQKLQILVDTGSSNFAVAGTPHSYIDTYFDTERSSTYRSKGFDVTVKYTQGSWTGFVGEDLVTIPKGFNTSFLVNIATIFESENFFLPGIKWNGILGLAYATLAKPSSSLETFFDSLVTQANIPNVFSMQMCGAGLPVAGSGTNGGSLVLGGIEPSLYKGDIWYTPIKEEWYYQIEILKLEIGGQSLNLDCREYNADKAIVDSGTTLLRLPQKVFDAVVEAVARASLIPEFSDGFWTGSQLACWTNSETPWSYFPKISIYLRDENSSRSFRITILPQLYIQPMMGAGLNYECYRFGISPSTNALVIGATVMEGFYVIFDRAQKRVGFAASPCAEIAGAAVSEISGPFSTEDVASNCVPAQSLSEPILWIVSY
Description: BACE-2 Assay (BACE-HTRF assay). In kind it is biochemical. The conditions noted are these: Ki calculated from IC50 using the Cheng-Prusoff equation; QSY7-EISEVNLDAEFC-Eu-amide substrate 200 nM, pH 5.0; read-out: BACE2 Ki. As to the method:
Inhibitor IC50s at purified human autoBACE-2 are determined in a time-resolved endpoint proteolysis assay that measures hydrolysis of the QSY7-EISEVNLDAEFC-Eu-amide FRET peptide substrate (BACE-HTRF assay). BACE-mediated hydrolysis of this peptide results in an increase in relative fluorescence (RFU) at 620 nm after excitation with 320 nm light. Inhibitor compounds, prepared at 3× the desired final concentration in 1× BACE assay buffer (20 mM sodium acetate pH 5.0, 10% glycerol, 0.1% Brij-35) supplemented with 7.5% DMSO are pre-incubated with an equal volume of autoBACE-2 enzyme diluted in 1× BACE assay buffer (final enzyme concentration 1 nM) in black 384-well NUNC plates for 30 minutes at 30° C. […] DMSO is present at 5% final concentration in the assay. Following laser excitation of sample wells at 320 nm, the fluorescence signal at 620 nm is collected for 400 ms following a 50 μs delay on a RUBYstar HTRF plate reader (BMG Labtechnologies). Raw RFU data is normalized to maximum (1.0 nM BACE/DMSO) and minimum (no enzyme/DMSO) RFU values. IC50s are determined by nonlinear regression analysis (sigmoidal dose response, variable slope) of percent inhibition data with minimum and maximum values set to 0 and 100 percent respectively. Similar IC50s are obtained when using raw RFU data. The Ki values are calculated from the IC50 using the Cheng-Prusoff equation.

As usually defined, the Ki is a dissociation constant, usually derived from enzyme kinetics or from competition with a known ligand.

Chain of soluble human BACE1 catalytic domain (P56817 75-416 limits assumed): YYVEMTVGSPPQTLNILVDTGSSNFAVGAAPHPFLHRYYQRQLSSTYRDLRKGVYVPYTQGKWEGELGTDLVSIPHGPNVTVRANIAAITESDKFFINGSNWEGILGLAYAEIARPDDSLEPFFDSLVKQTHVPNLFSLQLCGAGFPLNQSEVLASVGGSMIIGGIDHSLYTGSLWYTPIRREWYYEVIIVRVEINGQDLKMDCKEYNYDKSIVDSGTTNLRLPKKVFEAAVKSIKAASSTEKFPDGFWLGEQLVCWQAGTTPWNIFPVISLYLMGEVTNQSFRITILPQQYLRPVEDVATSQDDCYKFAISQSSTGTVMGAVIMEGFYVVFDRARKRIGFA

In the case of `CN=[S@@]1(=O)C[C@@](C)(c2cc(Nc3ncnc4cc(Br)cnc34)ccc2F)NC(=N)C1(C)C` [Example 8, (1R,5R)-5-(5-((7-bromopyrido[3,2-d]pyrimidin-4-yl)amino)-2-fluorophenyl)-3-imino-2,2,5-trimethyl-1-(methylimino)-1λ^6-thiomorpholine 1-oxide], the Ki in test [1] was 3 nM; in test [2], 1 nM.

Consider `CN=[S@@]1(=O)C[C@@](C)(c2cc(Nc3nccc4nc(OC)cnc34)ccc2F)NC(=N)C1(C)C` [Example 1, (1R,5R)-5-(2-fluoro-5-((2-methoxypyrido[3,4-b]pyrazin-5-yl)amino)phenyl)-3-imino-2,2,5-trimethyl-1-(methylimino)-1λ^6-thiomorpholine 1-oxide], for which the figures for the Ki in test [1] and in test [2] were 14 nM and 16 nM, respectively.

In the case of `CN=[S@]1(=O)C[C@@](C)(c2cc(Nc3ncccc3OC)ccc2F)NC(=N)C1(C)C` [Example 9, (1S,5R)-5-(2-fluoro-5-((3-methoxypyridin-2-yl)amino)phenyl)-3-imino-2,2,5-trimethyl-1-(methylimino)-1λ^6-thiomorpholine 1-oxide], the Ki in test [1] was 24 nM; in test [2], 6 nM.

For `CN=[S@]1(=O)C[C@@](C)(c2cc(Nc3ccnc4nc(OC)cnc34)ccc2F)NC(=N)C1(C)C` [Example 5, (1S,5R)-5-(2-fluoro-5-((3-methoxypyrido[2,3-b]pyrazin-8-yl)amino)phenyl)-3-imino-2,2,5-trimethyl-1-(methylimino)-1λ^6-thiomorpholine 1-oxide], in test [1], the Ki was 1160 nM.

As for `CN=[S@]1(=O)C[C@@](C)(c2cc(Nc3nccc4cc(OC)cnc34)ccc2F)NC(=N)C1(C)C` [Example 4, (1S,5R)-5-(2-fluoro-5-((3-methoxy-1,7-naphthyridin-8-yl)amino)phenyl)-3-imino-2,2,5-trimethyl-1-(methylimino)-1λ^6-thiomorpholine 1-oxide], the Ki in test [1] was 28 nM; in test [2], 25 nM.

As to `CN=[S@@]1(=O)C[C@@](C)(c2cc(Nc3ccnc4cc(OC)cnc34)ccc2F)NC(=N)C1(C)C` [Example 2, (1R,5R)-5-(2-fluoro-5-((7-methoxy-1,5-naphthyridin-4-yl)amino)phenyl)-3-imino-2,2,5-trimethyl-1-(methylimino)-1λ^6-thiomorpholine 1-oxide], the figures for the Ki in test [1] and in test [2] were 98 nM and 75 nM, respectively.

Turning to `CN=[S@]1(=O)C[C@@](C)(c2cc(Nc3nccc4cc(Br)cnc34)ccc2F)NC(=N)C1(C)C` [Example 6, (1S,5R)-5-(5-((3-bromo-1,7-naphthyridin-8-yl)amino)-2-fluorophenyl)-3-imino-2,2,5-trimethyl-1-(methylimino)-1λ^6-thiomorpholine 1-oxide], the Ki in test [1] was 4 nM; in test [2], 2 nM.

Regarding `CN=[S@]1(=O)C[C@@](C)(c2cc(Nc3ncnc4cc(Br)cnc34)ccc2F)NC(=N)C1(C)C` [Example 7, (1S,5R)-5-(5-((7-bromopyrido[3,2-d]pyrimidin-4-yl)amino)-2-fluorophenyl)-3-imino-2,2,5-trimethyl-1-(methylimino)-1λ^6-thiomorpholine 1-oxide], the Ki in test [1] is 10 nM.

Source of the values: patent publication US9957269B2, “S-imino-S-oxo iminothiazine compounds as bace inhibitors, compositions, and their use” (Merck Sharp & Dohme Corp., priority 2014, dated 2018).
